The values below come from ChEMBL document CHEMBL1201862, “PubChem BioAssay data set” (2004).

Among the test systems are OVCAR-5; SW-620; CAKI-1; HCC 2998; NCI-H23; OVCAR-8; SR; MOLT-4; SN12C; UO-31; LOX IMVI; A498; EKVX; CCRF-CEM; A549; SNB-19; SF-268; NCI-H522; RXF 393.
Holding throughout (experiment): NCI-60 cell line screen, 48 h

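Step 1: Grow cells in 96-well plates. Step 2: Expose to compound for 48 hours at 5 concentrations. Step 3: Interpolate endpoints linearly; if unreached, use highest concentration. GI50 = concentration required for 50% inhibition of growth.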 Active and inactive are the calls of the source. No stated cut-off is given here; in the data, active = GI50 up to about 1.1 µM and inactive = higher.

In the case of `COC(=O)C(=O)C1(CCC(C)=O)c2ccccc2-c2ccccc21`, the GI50 in the experiment on OVCAR-5 was > 100 µM (inactive); in the experiment on SW-620, > 100 µM (inactive); with CAKI-1, 35.2 µM (inactive); in the experiment with HCC 2998, 72.3 µM (inactive); in the experiment on NCI-H23, 63.2 µM (inactive); in the experiment with OVCAR-8, 99.8 µM (inactive). Further, the GI50 is 41 µM (inactive) in the experiment on SR; 33.4 µM (inactive) in the experiment on MOLT-4; > 100 µM (inactive) in the experiment on SN12C; 41 µM (inactive) in the experiment with UO-31; 62.1 µM (inactive) in the experiment on LOX IMVI; 88.5 µM (inactive) with A498. Also, the GI50 is > 100 µM (inactive) in the experiment on EKVX; 63.2 µM (inactive) in the experiment with CCRF-CEM; 87.5 µM (inactive) with A549; > 100 µM (inactive) with SNB-19; > 100 µM (inactive) with SF-268; 69.2 µM (inactive) with NCI-H522. In addition, the GI50 in the experiment on RXF 393 was 57.4 µM (inactive).
As to `COc1ccccc1NC(=O)O/N=C(/Cl)C(C)C`, the GI50 in the experiment on OVCAR-5 was 16.3 µM (inactive); in the experiment on SW-620 it was 1.82 µM (inactive); with HCC 2998 it was 15.6 µM (inactive); with NCI-H23, 14 µM (inactive); with OVCAR-8, 15 µM (inactive); in the experiment on SR it was 1.91 µM (inactive). Further, the GI50 in the experiment with MOLT-4 was 1.92 µM (inactive); in the experiment with SN12C it was 15.4 µM (inactive); in the experiment on UO-31 it was 18.8 µM (inactive); in the experiment on LOX IMVI, 2.28 µM (inactive); with A498, 15.6 µM (inactive); with EKVX, 16.1 µM (inactive). The GI50 in the experiment with CCRF-CEM is 0.977 µM (active); in the experiment on A549, 18.2 µM (inactive); in the experiment with SNB-19, 30.9 µM (inactive); with SF-268, 16.6 µM (inactive); with NCI-H522, 1.81 µM (inactive); with RXF 393 it was 14.9 µM (inactive).
For the compound `COc1cccc(NC(=O)CC(=O)N2N=C(N(CCC#N)c3ccc(Cl)cc3)CC2c2ccccc2)c1` (configuration not stated), the GI50 with OVCAR-5, in the experiment on SW-620, in the experiment on CAKI-1, in the experiment with HCC 2998, in the experiment with NCI-H23 and in the experiment on OVCAR-8 was > 100 µM (inactive) each time. The GI50 with SR, in the experiment on MOLT-4, with SN12C, in the experiment on UO-31, with LOX IMVI and with A498 was > 100 µM (inactive) each time. The GI50 in the experiment on EKVX, in the experiment on CCRF-CEM, with A549, in the experiment with SNB-19, in the experiment with SF-268 and in the experiment on NCI-H522 was > 100 µM (inactive) throughout. Moreover, in the experiment on RXF 393, the GI50 is > 100 µM (inactive).
Turning to `O=C(c1cc(O)ccc1O)c1ccccc1C(Cl)(Cl)Cl`, the GI50 in the experiment on OVCAR-5 was > 100 µM (inactive); in the experiment on SW-620, > 100 µM (inactive); in the experiment on CAKI-1, 93.1 µM (inactive); with HCC 2998 it was > 100 µM (inactive); with NCI-H23, 58.2 µM (inactive); in the experiment with OVCAR-8, 80.9 µM (inactive). Further, the GI50 with SR is 71.8 µM (inactive); in the experiment on MOLT-4 it was 33 µM (inactive); in the experiment on SN12C, > 100 µM (inactive); in the experiment on UO-31, 41.9 µM (inactive); with A498, 82.8 µM (inactive); with EKVX, 75.5 µM (inactive). Besides, the GI50 with CCRF-CEM was 61.5 µM (inactive); in the experiment on A549, > 100 µM (inactive); in the experiment on SNB-19 it was > 100 µM (inactive); with SF-268 it was > 100 µM (inactive); in the experiment with NCI-H522, 57.1 µM (inactive); in the experiment on RXF 393, > 100 µM (inactive).
As to `COc1ccc2c3ccc4c(c3n(C)c2c1)C(=O)c1ccccc1C4=O`, the GI50 with SW-620 was 80.2 µM (inactive); in the experiment with HCC 2998, > 100 µM (inactive); in the experiment on NCI-H23, > 100 µM (inactive); with OVCAR-8, 36.9 µM (inactive); in the experiment on SR it was > 100 µM (inactive); in the experiment on MOLT-4, > 100 µM (inactive). Besides, the GI50 was > 100 µM (inactive) in the experiment on SN12C; > 100 µM (inactive) in the experiment on UO-31; 48.4 µM (inactive) in the experiment on A498; > 100 µM (inactive) in the experiment with EKVX; > 100 µM (inactive) in the experiment with CCRF-CEM; 74.5 µM (inactive) with A549. Besides, the GI50 in the experiment with SNB-19 is > 100 µM (inactive); in the experiment on SF-268, 56.6 µM (inactive); in the experiment with NCI-H522 it was > 100 µM (inactive); with RXF 393, > 100 µM (inactive).
Turning to `N#CC(/C(=N\NC(N)=S)C(=O)NC1C2CC3CC(C2)CC1C3)c1ccc(Cl)cc1` (configuration not stated), the GI50 in the experiment with OVCAR-5, in the experiment on SW-620, with CAKI-1, in the experiment with HCC 2998, in the experiment on NCI-H23 and in the experiment with OVCAR-8 was > 100 µM (inactive) in each case. In addition, the GI50 in the experiment with SR, in the experiment on MOLT-4, in the experiment with SN12C, with UO-31, in the experiment with LOX IMVI and in the experiment on A498 was > 100 µM (inactive) throughout. The GI50 in the experiment on EKVX, in the experiment with CCRF-CEM, in the experiment with A549, in the experiment on SNB-19, in the experiment with SF-268 and in the experiment on NCI-H522 was > 100 µM (inactive) throughout. The GI50 in the experiment with RXF 393 is > 100 µM (inactive).
On to `O=C1NC(Cc2ccccc2)C(=O)N2CCCC12` (configuration not stated), for which the GI50 with OVCAR-5, with SW-620, in the experiment with CAKI-1, with HCC 2998, in the experiment on OVCAR-8 and in the experiment on SR was > 100 µM (inactive) throughout. Also, the GI50 in the experiment with MOLT-4, in the experiment with SN12C, in the experiment on UO-31, in the experiment with LOX IMVI, in the experiment on A498 and with EKVX was > 100 µM (inactive) throughout. The GI50 in the experiment on CCRF-CEM, in the experiment on A549, with SNB-19, in the experiment on SF-268, in the experiment with NCI-H522 and in the experiment on RXF 393 was > 100 µM (inactive) in each case.
With `COC(=O)C1CC(OC(C)=O)C=C2C(=O)CCC21` (configuration not stated), the GI50 was 20.3 µM (inactive) in the experiment with SW-620; 27 µM (inactive) in the experiment with CAKI-1; 34.2 µM (inactive) in the experiment with HCC 2998; 18.5 µM (inactive) with OVCAR-8; 14 µM (inactive) in the experiment on SR; 14.6 µM (inactive) with MOLT-4. Also, the GI50 in the experiment on SN12C was 19.2 µM (inactive); in the experiment with UO-31, 27.2 µM (inactive); in the experiment with A498, 37.9 µM (inactive); with CCRF-CEM it was 16.8 µM (inactive); in the experiment with A549, 37.2 µM (inactive); in the experiment on SNB-19, 26.2 µM (inactive). For the same compound, the GI50 in the experiment with SF-268 is 16.6 µM (inactive); in the experiment with NCI-H522, 1.89 µM (inactive); in the experiment on RXF 393, 14.8 µM (inactive).
